# Key:
# MOLM-13 cells = experiment: Whole cell assay, JC-1 mitochondrial potential, cells lacking digitonin (FIG. 1B); type: cell-based; settings: 100 μM peptide, no digitonin
# Protocol: (§1) Briefly, frozen MOLM-13 and OCI-AML3 cell stocks were rapidly thawed, and cell viability was determined by Trypan Blue exclusion. Cells were washed in PBS and resuspended in DTEB (or MEB) buffer (135 mM Trehalose [or 150 mM Mannitol], 10 mM HEPES, 50 mM KCl, 20 μMI EGTA, 20 μM EDTA, 0.1% BSA, and 5 mM succinate). The profiling peptides and NOXA ([…]; SEQ ID NO:16) were reconstituted in water to make working solutions allowing for final concentrations of: SEQ ID NO:1 (100 μM), SEQ ID NO:14 (100 μM), SEQ ID NO:15 (100 μM), and NOXA (100 μM). […] Profiling peptides, controls, or NOXA (for comparison purposes) were first added to a microplate. Cells (4×10^5) resuspended in DTEB or MEB buffers were then added to a staining solution ([…], 40 μM JC-1, 1 M 2-mercaptoethanol, DTEB or MEB buffer), before being added to the wells of the microplate in the above (for non-digitonin-treated samples, digitonin was not added to the staining solution above). The mixture was then incubated for up to 2 hours at 30° C., in order for cell permeabilization (if needed), delivery of peptides or compounds, and mitochondrial depolarization to occur. Fluorescence signal of each well was assessed using an Envision multilabel plate reader at Ex475/Em530 and Ex530/Em595. […]
# THP-1 = experiment: SEQ ID NO: 14 assay (Example 5, DiOC6 flow cytometry); type: cell-based; settings: non-permeabilized, DiOC6 MFI vs CCCP and water
# MV4-11 = experiment: as above; type: cell-based; settings: non-permeabilized, DiOC6 MFI vs CCCP and water
# Protocol: (§2) Leukocytes are isolated from primary bone marrow aspirates using ficoll preparation. Leukocytes may be fresh or frozen. If frozen, the sample is thawed prior to testing. Incubate the sample in RPMI with DNase 1 in 37° C. incubator for 60 minutes. Cells are then pelleted, blocked in PBS with 1% BSA for 15 minutes on ice, followed by staining for 30 minutes on ice in the dark. After staining, cells are pelleted and resuspended in DTEB with Ryanodine (30 nM) and Oligomycin. After incubating in a 37° C. incubator for 30 minutes, the sample is separated into fluorescent-activated cell sorting (FACS) tubes and treated with either water (negative control), CCCP (positive control) or SEQ ID NO:14 (subject dependency) and incubated in a 37° incubator for 60 minutes. DiOC6, a cationic mitochondrial dye is then added and incubated for 60 minutes in a 37° C. incubator. The cells are then analyzed via flow cytometry. Blast cells are isolated by gating on the CD45 dim, CD13, CD33 and CD34 high population of each sample. (See FIG. 3). Where indicated, cells may be further gated using CD3 and CD20. Dependency values are calculated using the median fluorescent intensity (MFI) of DiOC6 in each sample according to the following equation: […]
# NOXA assay results were compared to the results of the assay described in Example 5.
# HL-60 = experiment: as above; type: cell-based; settings: non-permeabilized, DiOC6 MFI vs CCCP and water
# [1] = test system: subject samples (AML blast cells); experiment: SEQ ID NO: 14 assay (Example 5) on subject samples; type: cell-based, human
# Protocol: as §2
# MOLM-13 = experiment: SEQ ID NO: 14 assay (Example 5, DiOC6 flow cytometry); type: cell-based; settings: non-permeabilized, DiOC6 MFI vs CCCP and water
# OCI-AML3 = experiment: as above; type: cell-based; settings: non-permeabilized, DiOC6 MFI vs CCCP and water
# [2] = test system: MOLM-13 and OCI-AML3 cells; experiment: Whole cell assay, JC-1 mitochondrial potential, permeabilized and non-permeabilized cells; type: cell-based; settings: 100 μM, normalized mitochondrial potential
# Protocol: as §1
# KG-1 = experiment: SEQ ID NO: 14 assay (Example 5, DiOC6 flow cytometry); type: cell-based; settings: non-permeabilized, DiOC6 MFI vs CCCP and water
# U-937 = experiment: as above; type: cell-based; settings: non-permeabilized, DiOC6 MFI vs CCCP and water
# [3] = Sample # 17, subject treated with FLAM, complete response
# [4] = Sample # 18, subject treated with FLAM, complete response
# [5] = Sample # 19, subject treated with FLAM, complete response
sequence,measurement,setting,value
YGRKKRRQRRRGGGRPEIWMTQGLRRLGDEINAYYAR (profiling peptide sequence) [SEQ ID NO:14],activity compared to the positive control (FCCP),MOLM-13 cells,exceeded the activity of the positive control
same,SEQ ID NO: 14 Dependency %,THP-1,11.70%
same,SEQ ID NO: 14 Dependency %,MV4-11,5.0%
same,SEQ ID NO: 14 Dependency %,HL-60,24.5%
same,SEQ ID NO: 14 Dependency %,[1]; Sample # 1,18.0%
same,SEQ ID NO: 14 Result (Pos/Neg),[1]; Sample # 1,Neg (Concordance based on cutoff of ≥40% MCL-1 Dependency for both methods.)
same,SEQ ID NO: 14 Dependency %,[1]; Sample # 2,44.9%
same,SEQ ID NO: 14 Result (Pos/Neg),[1]; Sample # 2,Pos (Concordance based on cutoff of ≥40% MCL-1 Dependency for both methods.)
same,SEQ ID NO: 14 Dependency %,[1]; Sample # 3,53.8%
same,SEQ ID NO: 14 Result (Pos/Neg),[1]; Sample # 3,Pos (Concordance based on cutoff of ≥40% MCL-1 Dependency for both methods.)
same,SEQ ID NO: 14 Dependency %,[1]; Sample # 4,26.7%
same,SEQ ID NO: 14 Result (Pos/Neg),[1]; Sample # 4,Neg (Concordance based on cutoff of ≥40% MCL-1 Dependency for both methods.)
same,SEQ ID NO: 14 Dependency %,[1]; Sample # 5,70.8%
same,SEQ ID NO: 14 Result (Pos/Neg),[1]; Sample # 5,Pos (Concordance based on cutoff of ≥40% MCL-1 Dependency for both methods.)
same,SEQ ID NO: 14 Dependency %,[1]; Sample # 6,44.3%
same,SEQ ID NO: 14 Result (Pos/Neg),[1]; Sample # 6,Pos (Concordance based on cutoff of ≥40% MCL-1 Dependency for both methods.)
same,SEQ ID NO: 14 Dependency %,[1]; Sample # 7,48.1%
same,SEQ ID NO: 14 Result (Pos/Neg),[1]; Sample # 7,Pos (Concordance based on cutoff of ≥40% MCL-1 Dependency for both methods.)
same,SEQ ID NO: 14 Dependency %,[1]; Sample # 8,17.0%
same,SEQ ID NO: 14 Result (Pos/Neg),[1]; Sample # 8,Neg (Concordance based on cutoff of ≥40% MCL-1 Dependency for both methods.)
same,SEQ ID NO: 14 Dependency %,[1]; Sample # 9,71.8%
same,SEQ ID NO: 14 Result (Pos/Neg),[1]; Sample # 9,Pos (Concordance based on cutoff of ≥40% MCL-1 Dependency for both methods.)
same,SEQ ID NO: 14 Dependency %,[1]; Sample # 10,0.0%
same,SEQ ID NO: 14 Result (Pos/Neg),[1]; Sample # 10,Neg (Concordance based on cutoff of ≥40% MCL-1 Dependency for both methods.)
same,SEQ ID NO: 14 Dependency %,[1]; Sample # 11,40.6%
same,SEQ ID NO: 14 Result (Pos/Neg),[1]; Sample # 11,Pos (Concordance based on cutoff of ≥40% MCL-1 Dependency for both methods.)
same,SEQ ID NO: 14 Dependency %,[1]; Sample # 12,38.3%
same,SEQ ID NO: 14 Result (Pos/Neg),[1]; Sample # 12,Neg (Concordance based on cutoff of ≥40% MCL-1 Dependency for both methods.)
same,SEQ ID NO: 14 Dependency %,[1]; Sample # 13,35.2%
same,SEQ ID NO: 14 Result (Pos/Neg),[1]; Sample # 13,Neg (Concordance based on cutoff of ≥40% MCL-1 Dependency for both methods.)
same,SEQ ID NO: 14 Dependency %,[1]; Sample # 14,2.6%
same,SEQ ID NO: 14 Result (Pos/Neg),[1]; Sample # 14,Neg (Concordance based on cutoff of ≥40% MCL-1 Dependency for both methods.)
same,SEQ ID NO: 14 Dependency %,[1]; Sample # 15,0.0%
same,SEQ ID NO: 14 Result (Pos/Neg),[1]; Sample # 15,Neg (Concordance based on cutoff of ≥40% MCL-1 Dependency for both methods.)
same,SEQ ID NO: 14 Dependency %,[1]; Sample # 16,0.1%
same,SEQ ID NO: 14 Result (Pos/Neg),[1]; Sample # 16,Neg (Concordance based on cutoff of ≥40% MCL-1 Dependency for both methods.)
same,SEQ ID NO: 14 Dependency %,[1]; [3],62.4%
same,SEQ ID NO: 14 Result (Pos/Neg),[1]; [3],Pos (Concordance based on cutoff of ≥40% MCL-1 Dependency for both methods.)
same,SEQ ID NO: 14 Dependency %,[1]; [4],55.0%
same,SEQ ID NO: 14 Result (Pos/Neg),[1]; [4],Pos (Concordance based on cutoff of ≥40% MCL-1 Dependency for both methods.)
same,SEQ ID NO: 14 Dependency %,[1]; [5],27.8%
same,SEQ ID NO: 14 Result (Pos/Neg),[1]; [5],Neg (Concordance based on cutoff of ≥40% MCL-1 Dependency for both methods.)
same,SEQ ID NO: 14 Dependency %,MOLM-13,20.78%
same,SEQ ID NO: 14 Dependency %,OCI-AML3,19.40%
same,activity in the absence of digitonin compared to Mcl-1 binding domain alone or SEQ ID NO:15,[2],superior activity
same,SEQ ID NO: 14 Dependency %,KG-1,0.0%
same,SEQ ID NO: 14 Dependency %,U-937,10.1%

# From US10422788B2, “Profiling peptides and methods for sensitivity profiling” (Tolero Pharmaceuticals, Inc., priority 2016, dated 2019)
